{
  "source": "patent EP0278940A2",
  "about": "“Hepatitis B virus surface antigens and hybrid antigens containing them” (SMITHKLINE BIOLOGICALS S.A., priority 1987, dated 1988)",
  "test_system": "synthetic preS2 peptide",
  "experiment": "Immunogenicity in mice: anti-preS2 antibodies by solid phase RIA on synthetic preS2 peptide",
  "assay_type": "in vivo, mice: Balb/c (H₂-d) and NMRl (H₂-Q)",
  "conditions": "Balb/c and NMRl mice, I.P., one month, pooled sera",
  "procedure": "The immunogenicity of particles prepared from extracts of cells containing pRIT12660 (Example 16) was studied in 2 strains of mice: Balb/c (H₂-d) and NMRl (H₂-Q). The particles were absorbed on Al(OH)₃ before injection and the mice (5 mice/group) were injected intraperitoneally (I.P.) with 0.3 µg of RIA reacting material. One month after the immunization, the mice were bled and the sera from the mice of the same group were pooled. The titer of anti-S antibodies was determined in the pools by using the AUSAB kit (Abbott Labs) and the WHO reference. The titers were converted in mIU/ml by using the Hollinger formula (Hollinger et al., in Szmuness et al., eds. Viral Hepatitis, Philadelphia : Franklin Institute Press, 451-466, 1982). The anti-preS2 antibodies were determined using a solid phase assay (RIA) in which the synthetic preS2 peptide given in Example 23, is absorbed on plastic and bound antibodies were detected with a goat anti-mouse IgG labelled with ¹²⁵I. […] PreS determinants enhance the response to the S determinants. This enhancing effect is not shown if the preS2 synthetic peptide is injected together with particles which lack the preS2.",
  "data": [
    {"compound": "CSCC[C@H](N)C(=O)N[C@@H](CCC(=O)O)C(=O)N[C@@H](Cc1c[nH]c2ccccc12)C(=O)N[C@@H](CC(N)=O)C(=O)N[C@@H](CO)C(=O)N[C@H](C(=O)N[C@@H](C)C(=O)N[C@@H](Cc1ccccc1)C(=O)N[C@@H](Cc1c[nH]cn1)C(=O)N[C@@H](CCC(N)=O)C(=O)N[C@@H](C)C(=O)N[C@@H](CC(C)C)C(=O)N[C@@H](CCC(N)=O)C(=O)N[C@@H](CC(=O)O)C(=O)N1CCC[C@H]1C(=O)N[C@@H](CCCNC(=N)N)C(=O)N[C@H](C(=O)N[C@@H](CCCNC(=N)N)C(=O)NCC(=O)N[C@@H](CC(C)C)C(=O)N[C@@H](Cc1ccc(O)cc1)C(=O)N[C@@H](CC(C)C)C(=O)N1CCC[C@H]1C(=O)N[C@@H](C)C(=O)NCC(=O)N[C@@H](CS)C(=O)O)C(C)C)[C@@H](C)O", "note": "[preS2 synthetic peptide]", "values": [
      {"measurement": "induction of anti-preS2 peptide antibodies", "result": "unable to elicit anti-preS2 antibodies"}
    ]}
  ]
}
